Values of other authors, collected in PubChem BioAssay AID1259409 (Chemical Carcinogenesis Research Information System (CCRIS), 2018).

System: rodent chemically induced tumor inhibition, incidence and multiplicity
Experiment: CCRIS tumor inhibitor studies

C=CCc1cc(OC)c2c(c1)OCO2
tumour outcome (control, treated, inhibition, significance) (Carcinogen: BENZO[A]PYRENE, 50-32-8, Dose [Inhibitor]: 0, 10 MG SUSPENDED IN 0.3 ML COTTONSEED OIL 3/WK FOR 4 WK ON DAYS OTHER THAN THE CARCINOGEN TREATMENT, 3 ADDITIONAL DOSE, Route [Inhibitor]: GAVAGE, Species: MOUSE, Strain/Sex: STRAIN-A/FEMALE, Target Tissue: Type of Lesion: FORESTOMACH: TUMOR, Dose [Carcinogen]: 1 MG IN 0.3 ML COTTONSEED OIL 2/WK FOR 4 WK, Promoter: NONE USED): 12/17 (71%), 13/18 (72%), -1%, not significant | tumour outcome (control, treated, inhibition, significance) (Carcinogen: BENZO[A]PYRENE, 50-32-8, Dose [Inhibitor]: 0, 10 MG SUSPENDED IN 0.3 ML COTTONSEED OIL 3/WK FOR 4 WK ON DAYS OTHER THAN THE CARCINOGEN TREATMENT, 3 ADDITIONAL DOSE, Route [Inhibitor]: GAVAGE, Species: MOUSE, Strain/Sex: STRAIN-A/FEMALE, Target Tissue: Type of Lesion: LUNG: TUMOR, Dose [Carcinogen]: 1 MG IN 0.3 ML COTTONSEED OIL 2/WK FOR 4 WK, Promoter: NONE USED): 17/17 (100%), 18/18 (100%), 0%, not significant

N[C@@H](CSSC[C@H](N)C(=O)O)C(=O)O
tumour outcome (control, treated, inhibition, significance) (Carcinogen: 4-DIMETHYLAMINOAZOBENZENE, 60-11-7, Dose [Inhibitor]: 0.5% OF DIET DAILY STARTING SIMULTANEOUSLY WITH CARCINOGEN TREATMENT AND CONTINUING THROUGH THE END OF THE STUDY (STUDY, Route [Inhibitor]: ORAL, Species: RAT, Strain/Sex: OSBORNE-MENDEL/MALE, Target Tissue: Type of Lesion: LIVER: HEPATOMA, ADENOCARCINOMA, Dose [Carcinogen]: 0.06% OF DIET DAILY THROUGH THE END OF THE STUDY, Promoter: NONE USED): 48/80 (60%), 84/87 (97%), -62%, not calculated

COc1cc(C[C@@H](CO)[C@H](CO)Cc2ccc(O)c(OC)c2)ccc1O
tumour outcome (control, treated, inhibition, significance) (Carcinogen: 7,12-DIMETHYLBENZ[A]ANTHRACENE, 57-97-6, Dose [Inhibitor]: 0, 1.5 MG IN 1 ML OF DISTILLED WATER 1/D FOR 20 WK BEGINNING 1 WK POST CARCINOGEN DOSE (STUDY DURATION: 21 WK), Route [Inhibitor]: GAVAGE, Species: RAT, Strain/Sex: SPRAGUE-DAWLEY/FEMALE, Target Tissue: Type of Lesion: MAMMARY GLAND: TUMOR, Dose [Carcinogen]: 5 MG IN 1 ML CORN OIL ONCE, Promoter: NONE USED): 26/30 (87%), 23/30 (77%), 11%, not significant

CCCCCCCCCCCCCCCC(=O)OC[C@H](O)[C@H]1OC(=O)C(O)=C1O
tumour outcome (control, treated, inhibition, significance) (Carcinogen: 7,12-DIMETHYLBENZ[A]ANTHRACENE, 57-97-6, Dose [Inhibitor]: 0, 1 UMOL 1/WK 5 MIN PRIOR TO EACH PROMOTER DOSE BEGINNING 2 WK POST CARCINOGEN DOSE AND CONTINUING FOR 27 WK (STUDY DUR, Route [Inhibitor]: DERMAL, Species: MOUSE, Strain/Sex: SENCAR/FEMALE, Target Tissue: Type of Lesion: SKIN: PAPILLOMA, Dose [Carcinogen]: 25 NMOL ONCE, Promoter: CHRYSAROBIN, 491-58-7): 100%, 88%, 12%, not significant | tumour outcome (control, treated, inhibition, significance) (Carcinogen: 7,12-DIMETHYLBENZ[A]ANTHRACENE, 57-97-6, Dose [Inhibitor]: 0, 4 UMOL 1/WK 5 MIN PRIOR TO EACH PROMOTER DOSE BEGINNING 2 WK POST CARCINOGEN DOSE AND CONTINUING FOR 27 WK (STUDY DUR, Route [Inhibitor]: DERMAL, Species: MOUSE, Strain/Sex: SENCAR/FEMALE, Target Tissue: Type of Lesion: SKIN: PAPILLOMA, Dose [Carcinogen]: 25 NMOL ONCE, Promoter: CHRYSAROBIN, 491-58-7): 100%, 90%, 10%, not significant

CCCCCCCCCCCC
tumour outcome (control, treated, inhibition, significance) (Carcinogen: 4-(METHYLNITROSAMINO)-1-(3-PYRIDYL)-1-BUTANONE, 64091-91-4, Dose [Inhibitor]: 0, 1 UMOL IN 0.1 ML CORN OIL ONCE 2 HR PRIOR TO CARCINOGEN DOSE (STUDY DURATION: 16 WK), Route [Inhibitor]: GAVAGE, Species: MOUSE, Strain/Sex: STRAIN-A/FEMALE, Target Tissue: Type of Lesion: LUNG: ADENOMA, Dose [Carcinogen]: 10 UMOL IN 0.1 ML SALINE ONCE, Promoter: NONE USED): 100%, 100%, 0%, not significant

O=C(CCC(O)c1ccccc1)c1ccccc1 (stereo not drawn)
tumour outcome (control, treated, inhibition, significance) (Carcinogen: 4-(METHYLNITROSAMINO)-1-(3-PYRIDYL)-1-BUTANONE, 64091-91-4, Dose [Inhibitor]: 0, 25 UMOL IN 0.1 ML CORN OIL ONCE 2 HR PRIOR TO CARCINOGEN DOSE (STUDY DURATION: 16 WK), Route [Inhibitor]: GAVAGE, Species: MOUSE, Strain/Sex: STRAIN-A/FEMALE, Target Tissue: Type of Lesion: LUNG: TUMOR, Dose [Carcinogen]: 10 UMOL IN 0.1 ML SALINE ONCE, Promoter: NONE USED): 100%, 100%, 0%, not significant
